Measurements: patent US11072634B2, “Inhibitors of transglutaminases” (Zedira GmbH, priority 2016, dated 2021)

Key:
[1] = test system: Htt-exon1-97Q transfected N2a-cells; assay: ELISA of huntingtin and isopeptide bonds in SDS-soluble and formic acid soluble cell extracts; assay type: cell-based, mouse; conditions: N2a Htt-exon1-97Q, 150 or 300 μM, both extracts
Experimental: A) Detection of huntingtin (htt) in an ELISA-Assay. Microtiter plate wells were coated with SDS-soluble and formic acid solubilized extracts of Htt-exon1-97Q transfected N2a-cells grown in the presence of 150 and 300 μM TG2-inhibitor E22. Anti-Htt-antibody 1C2 (1:250, Millipore, MAB1574) was used as detection antibody, followed by a conventional ELISA-protocol.
B) Detection of isopeptide bonds in an ELISA-Assay. Microtiter plate wells were coated with SDS-soluble and formic acid solubilized extracts of Htt-exon1-97Q transfected N2a-cells grown in the presence of 150 and 300 μM TG2-inhibitor E22. Antibody A023 (1:200, Zedira) recognizing N^ε-(γ-L-glutamyl)-L-lysine-isopeptide was used as detection antibody, followed by a conventional ELISA-protocol. […]
SDS-soluble and formic acid soluble extracts were used subsequently for coating of 96-well micro-titer-plates. […] Extinction was measured at 450 nm in a plate reader device.
In order to analyze the effect of E22 on huntingtin aggregation and cross-linking, Htt-exon1-97Q transfected N2a-cells were grown in presence of 150 or 300 μM TG2-blacker E22. SDS-soluble and formic acid soluble extracts were generated and huntingtin and cross-links (isopeptide bonds) were determined in an ELISA-format as described above.

[2] = target: T1, TG2 (Homo sapiens, UniProt P21980); assay: Transglutaminase activity of homogenates of LX-2 cells; assay type: cell-based; conditions: LX-2, 100 μM, 12 days; read-out: Transglutaminase activity, of the inhibitor free control
T1 sequence (P21980 1-687): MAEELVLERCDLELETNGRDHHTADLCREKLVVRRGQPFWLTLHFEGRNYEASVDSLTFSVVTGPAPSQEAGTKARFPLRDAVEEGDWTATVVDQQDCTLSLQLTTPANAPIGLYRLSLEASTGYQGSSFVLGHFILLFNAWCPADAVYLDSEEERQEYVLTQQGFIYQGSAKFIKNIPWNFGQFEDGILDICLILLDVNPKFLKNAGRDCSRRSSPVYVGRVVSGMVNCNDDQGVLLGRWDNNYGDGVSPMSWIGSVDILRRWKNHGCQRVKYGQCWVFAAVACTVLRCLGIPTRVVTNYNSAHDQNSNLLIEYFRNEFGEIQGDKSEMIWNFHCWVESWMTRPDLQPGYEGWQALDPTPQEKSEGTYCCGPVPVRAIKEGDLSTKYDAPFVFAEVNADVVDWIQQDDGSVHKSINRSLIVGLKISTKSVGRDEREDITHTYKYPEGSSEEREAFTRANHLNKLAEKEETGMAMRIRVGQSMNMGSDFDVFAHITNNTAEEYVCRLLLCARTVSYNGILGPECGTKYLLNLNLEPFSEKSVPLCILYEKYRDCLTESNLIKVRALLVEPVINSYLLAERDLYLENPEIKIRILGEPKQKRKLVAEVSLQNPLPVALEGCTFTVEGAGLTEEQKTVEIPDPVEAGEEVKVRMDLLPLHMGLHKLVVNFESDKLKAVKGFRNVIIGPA
Experimental: A) Transglutaminase activity of homogenates from LX-2-cells grown in standard plastic 6-well plates in the presence of 0-200 μM E22 determined by TG2-selective Tissue Transglutaminase Pico-Assay Kit (#M003, Zedira, Darmstadt, Germany) according to the manufacturer's instructions.
(§1) Human hepatic stellate cell line LX-2 was cultured on standard plastic 6 well plates in Dulbecco's Modified Eagle's Medium containing 100 μg/mL streptomycin, 100 units/ml penicillin, 2 mM glutamine, and 10% (v/v) fetal calf serum. E22 was added to a concentration of 0 μM, 100 μM and 200 μM. Cells were grown at 37° C. and 5% CO2 humidified atmosphere. Medium was exchanged every two days.

[3] = test system: Human hepatic stellate cell line LX-2; assay: Extracellular matrix protein deposition of LX-2 cells; assay type: cell-based; conditions: LX-2, 100 μM and 200 μM, 12 days
Experimental: B) Extracellular matrix protein deposition of homogenates from LX-2-cells grown in standard plastic 6-well plates in the presence of 0-200 μM E22 measured by the DC-protein-assay (BioRad, #5000111).
as §1

For `CCCCCNC(=O)C(=O)CC[C@H](NC(=O)[C@@H]1CCCN1C(C)=O)C(=O)Nc1cccn(CC(=O)NCC(CC)CC)c1=O` [Compound E22, (S)-2-((S)-1-acetylpyrrolidine-2-carboxamido)-N1-(1-(2-(2-ethylbutylamino)-2-oxoethyl)-2-oxo-1,2-dihydropyridin-3-yl)-5-oxo-N6-pentylhexanediamide], the “protein cross-linking (isopeptide bonds)” value [1] was “reduces protein cross-linking in a dose dependent manner”, the remaining activity at 100 µM [2] was < 5% and the “extracellular matrix deposition, of control” value [3] was “about 30%”.
